Entries after “also recorded” stand apart in the source; their conditions may differ.
Experiments:
NG108-15 cells [1] = experiment: Automated patch-clamp electrophysiology, resting membrane potential; type: cell-based, mouse/rat; settings: NG108-15, immediately after application
Procedure: Electrophysiology. SyncroPatch 384PE platform (Nanion Technologies®) was used to perform the automated patch-clamp experiments. This system provides giga-ohm resistance seals during simultaneous recording in the 384-well plate format. Cells were harvested 48-72 h after seeding 1-2×10^6 cells in T175 culture flasks (Falcon), then cells were rinsed with PBS (5 mL) and treated with 3 mL Accutase ([…] technologies) for 5 min at 37° C., re-suspended in 10 mL of serum-free media and pelleted at 1000 rpm for 3 min at RT. […] The cells were kept until the moment of the experiment in a temperature controlled dedicated reservoir at 10° C. and shaken at 200 rpm as described. The experiments were performed within one hour after the harvesting process. The assays were carried in single-hole chips with resistances between 4-5 MΩ after priming the chip with the following solutions (in mM), physiological extracellular solution (pECS) 10 HEPES, 140 NaCl, 5 Glucose, 4 KCl, 2 CaCl2), 1 MgCl2, 295-305 mOsm pH 7.4 (NaOH). Internal recording solution (in mM) 20 EGTA, 50 KCl, 10 NaCl, 60 KF, 10 HEPES at pH 7.2, and 285 mOsm. 15 μL of the cell suspension (50% v/v pECS/Medium no serum) was added to each well to a final density of 50-80K cells/mL. Cell capture was promoted by holding a negative pressure of −100 mbar for 20 s. After successive hyperpolarization steps from −30 mV to −100 mV enhanced the capture the seal followed by the transient addition of a high Ca2+ extracellular solution (80 mM NaCl, 3 mM KCl, 35 mM CaCl2), 10 mM MgCl2, 10 mM HEPES at pH 7.4 and 298 mOsm. High Ca2+ solution is washed out by successive external exchanges replacing half of the volume of the well each time with the external recording solution. All recording solutions were prepared with ultrapure MilliQ water (18 MD-cm). After the formation of the Giga-seal, a 250 mbar pressure was applied to break the membrane patch. Once in whole-cell configuration, different voltage protocols were applied to dissect different conductances in NG108-15 cells. Signals were recorded in the current-clamp mode “I=0” (passive conditions) where no current was injected, to monitor the membrane potential. The membrane potentials were recorded for seven sweeps of 1 sec, with an inter-sweep time of 10 s. The average membrane potentials of the 7 sweeps were reported.
Electrophysiology of NG108-15 Cells Show Changes in Resting Membrane Potential Induced by Treatment. […] Untreated cells were patched, baseline measurements were taken and then the drugs were added and the changes in the cell Vmem were recorded.

NG108-15 cells [2] = experiment: Growth and FUCCI assays in NG108-15 cells (cell counts, cell cycle, recovery test); settings: for fold decrease in proliferation compared to control: high serum; for FUCCI cell cycle proportion: NG108-15, day 6
Procedure: Cells were plated in 96 well plates at a low confluence and drugs were added fresh every other day for 6 days. Some studies removed the drug at 6 days and added media with no drug for an additional 4 days to test for proliferation. Images of the cells were taken every day and a cell profiler pipeline was used to count the cells and determine the ratio of cells in each part of the cell cycle. […] Cell Culture. […] Cells were disassociated with Accutase and passaged when 70% confluent and maintained at 37° C. with 5% C02. Media was changed every two days. […] All drug screens including controls were done using 0.02% DMSO in the high serum Fluorobrite DMEM.
Growth and FUCCI assays. Both cell lines were plated at 5,000 cells per mL into black-walled flat-bottom 96-well plates coated with 1/50 dilution of Matrigel. Images of cells were taken on Day 0 and every subsequent day for 10 days using a Zeiss Axio1 fitted with an on-stage incubator and kept at 37° C. with 5% C02. A 5× objective was used along with filters for YFP, RFP, and CFP and careful calibration of each plate was done to ensure that the same fields of view were imaged each day. Drugs were added after the initial images were taken and then changed every two days until day 6. For recovery experiments, after imaging on day 6, all drugs were removed, and cells were put into imaging media without any added drugs. This media was changed every two days until day 10. Analysis of growth and snap shots of FUCCI reporters over the 6 days or 10 days was done using a CellProfiler [72]pipeline designed by the Broad. The fractional difference in cell number was calculated by dividing the total number of cells each day by the total number of cells from day 0. The ratio of cells in each cell cycle stage every day was determined by counting all the nuclei of one color and dividing it by the total number of nuclei. Blind quality control was done on all the images to make sure that any fibers or image artifacts were not incorrectly counted by the program.

NG108-15 cells [3] = experiment: Antibody staining, BrdU and senescence assays in NG108-15 cells; type: cell-based, mouse/rat; settings: NG108-15, 6 days
Procedure: Antibody Staining, BrdU and Senescence Assays. NG108-15 cells were plated on PEI and Matrigel coated plates at 15,000 or 30,000 cells/mL, U87 cells at 10,000 cells/mL and grown in imaging media for 6 days with drug treatment. Fresh media was added every 2 days. On day 6, cells were fixed with 4% formaldehyde in PBS for 30 minutes for all antibody staining, except for BrdU which was fixed for 15 minutes, and for the senescence assay which was fixed for 20 min using the Senescence Beta-Galactosidase Staining Kit (9860, CellSignaling) and thereafter stained according to manufacturer's protocol. After fixing, cells were washed twice with PBS, and were permeabilized in PBS with 0.3% Triton-X for 15 min then washed again twice with PBS. The cells for the BrdU assay were additionally treated with 1N HCl for 10 min on ice, followed by a treatment with 2N HCl for 50 min at room temp. Cells were then blocked with standard blocking buffer comprised of TBS containing 10% goat serum, 0.1% BSA, and with 0.05% Tween 20 or without detergent for antibodies against phosphorylated proteins or monoclonal antibodies except for Anti-YAP and Anti-BrdU staining, which were done according to manufacturer's protocol. Primary antibodies were added at the following concentrations: 1:250 anti-S100 beta (GTX129573, Genetex), 1:500 anti-GFAP (AB5804, EMD-Millipore), 1:300 anti-SOX10 (ab155279, Abcam), 1:100 MAP2 (4542, CellSignaling), 1:400 anti-cleaved caspase 3 (9661, CellSignaling), 1:300 anti-Cx43 (STJ2411, St. John's Labratory), 1:800 anti-p27^Kip1 (3698, CellSignaling), 1:150 anti-BrdU (5292, CellSignaling), 1:125 anti-LC3-II (2775, CellSignaling), 8 μg/mL anti-04 (MAB1326, R&D Systems), 1:1000 anti-TH (RPCA-TH, Encor), 1:4000 anti-NSE (RPCA-NSE, Encor), 1:4000 anti-NFM (RPCA-NF-M, Encor), 0.5 μg/mL anti-TujI (801202, Biolegend), 1:400 anti-NF-KB p65 (8242, CellSignaling), 1:125 anti-phospho CREB (05-807, EMD-Millipore), 1:250 anti-vimentin (ab92547, Abcam), 1:125 anti-YAP (14074, CellSignaling). Antibodies were diluted in their respective blocking buffer and incubated overnight at 4° C. The next day, cells were washed with TBS-T or TBS for 3× for 5 min each and secondary antibody was added as follows: 1:1000 donkey anti-mouse 647 (A-31571, Thermo-Fisher) or 1:1000 donkey anti-rabbit 647 (A-31573, Thermo-Fisher). Each were diluted in blocking buffer along with 2.5 μg/mL Hoechst 33342 and incubated for 1 hour at room temperature. Cells were then washed again with TBS-T or TBS for 3× for 5 min each and covered with Gelvatol. Cells were imaged with an EVOS M7000 system, with at least 50% of each well in a 96 well plate imaged and analyzed using a CellProfiler pipeline for measuring integrated intensity, mean intensity, or nuclear to cytoplasmic ratio of mean intensities.

Row | Structure (SMILES) | change in resting membrane potential compared to control (NG108-15 cells [1]) | fold decrease in proliferation compared to control (NG108-15 cells [2]; NG108-15, 6 days of treatment, NS1643 at 20 μM) | fold decrease in proliferation compared to control (NG108-15 cells [2]; NG108-15, 6 days of treatment, NS1643 at 50 μM) [fold] | FUCCI cell cycle proportion (NG108-15 cells [2]) | cleaved caspase 3 staining (NG108-15 cells [3]) | size of the nuclei (NG108-15 cells [3]) | cell proliferation compared to control (words) (NG108-15 cells [2]; NG108-15, 6 days of treatment) | recovery of proliferation after treatment removed (NG108-15 cells [2]; NG108-15, drugs removed at day 6, followed to day 10) | BrdU incorporation (NG108-15 cells [3]) | S100B and GFAP markers (NG108-15 cells [3]) | connexin 43 (Cx43) expression (NG108-15 cells [3]) | senescence-associated beta-galactosidase activity stain (NG108-15 cells [3])
1 | O=C(Nc1cc(C(F)(F)F)ccc1O)Nc1cc(C(F)(F)F)ccc1O [NS1643] | significantly hyperpolarized | about 1.6 fold | ~2.4 | did not seem to affect the cell cycle proportion | decrease the cleaved caspase 3 positive cells significantly | significantly larger | – | – | – | – | – | –
2 | COc1ccnc(C[S+]([O-])c2nc3ccc(OC(F)F)cc3[nH]2)c1OC (stereo not shown) [Pantoprazole, pantoprazole] | did not have an immediate effect | – | – | increase in cells arrested at late S phase; also recorded: increases the proportion of cells in early S | significant increase in cleaved caspase 3 staining | significantly larger | very significant decrease in cell proliferation | immediately re-entered the cell cycle | significant decrease | significantly upregulated | increase in connexin 43 (Cx43) expression | very significant increase

From patent US20250049747A1, “USE OF HYPERPOLARIZING AGENTS ALONE AND IN COMBINATION WITH OTHER THERAPEUTIC AGENTS FOR TREATING CANCERS INCLUDING GLIOBLASTOMA” (Trustees of Tufts College, priority 2021, published 2025)
